Laboratory results as given in patent publication US20250099545A1, “COMPOSITIONS, SYSTEMS, AND METHODS FOR TREATING CANCER USING TUMOR TREATING FIELDS WITH IMMUNE CHECKPOINT INHIBITORS AND MHC CLASS I ACTIVATORS” (Novocure GmbH, priority 2023, published 2025).
Where two headings read alike, the source gives them in different places.

Columns and labels:
[1] = system: MHC Class I expression in A2780 human ovarian cancer cells; assay: MHC Class I expression in A2780 cells after alpelisib, TTFields or both; format: cell-based; details: TTFields (1.75V/cm and 200 kHz) plus 250 nM alpelisib for 72 h, then 72 h without drug under TTFields, vs untreated control and single treatments
Experimental: A2780 human ovarian cancer cells (20,000 cells/well) were incubated for 144 h with the following conditions: Control untreated; 250 nM alpelisib (PI3K inhibitor) for 72 h—media containing the drug was removed, and fresh media without alpelisib was added for an additional 72 h incubation; TTFields (1.75V/cm and 200 kHz); TTFields plus 250 nM alpelisib for 72 h—media containing the drug was removed, and fresh media without alpelisib was added for an additional 72 h incubation under TTFields condition.

[2] = system: MHC Class I expression in Panc02-luc mouse pancreatic cells; details: TTFields (1.75V/cm and 150 kHz) plus 10 μM chloroquine, 72 h, vs untreated control
Experimental: Panc02-luc mouse pancreatic cells (10,000 cells/well) were incubated for 72 h with the following conditions: Control untreated, 10 μM chloroquine (autophagy inhibitor), TTFields (1.75V/cm and 150 kHz), and TTFields plus 10 μM chloroquine.
In FIG. 3, MHC Class I expression was evaluated in Panc02-luc mouse pancreatic cells (an orthotopic model of pancreatic cancer) following chloroquine (an autophagy inhibitor) treatment alone, TTFields application alone, and the combination of TTFields application with concomitant chloroquine treatment.

Compound	MHC Class I expression [1]	MHC Class I expression ([1]; listed as Alpelisib)	MHC Class I expression [2]	MHC Class I expression ([2]; listed as Chloroquine)
Cc1nc(NC(=O)N2CCC[C@H]2C(N)=O)sc1-c1ccnc(C(C)(C)C(F)(F)F)c1 [alpelisib]	greater than in the untreated control group as well as in the single treatment groups	increased with concomitant Alpelisib treatment		
CCN(CC)CCCC(C)Nc1ccnc2cc(Cl)ccc12 (stereo not shown) [chloroquine]			increased significantly above the untreated cells	increased with concomitant Chloroquine treatment
